{"source": "patent US20240082228A1", "about": "“SARS-COV-2 THERAPEUTICS” (priority 2021, published 2024)", "note": "Values joined by “and” are separate entries in the source; they are usually repeats but may differ in a detail not shown here. Equal entries are not always repeated.", "data": [{"tested_on": "SARS-CoV-2", "assay": "microbe, parasite or virus in culture", "assay_type": "cell-based", "details": "1 uM; call rule not given here", "values": [{"compound": "CCCCN(CCCC)CCC(O)c1cc2c(Cl)cc(Cl)cc2c2cc(C(F)(F)F)ccc12", "note": "(stereo not shown) [Halofantrine lot −4, halofantrine]", "HIT (2 Std, 1 uM)": "HIT"}, {"compound": "CCCCN(CCCC)CCC(O)c1cc2c(Cl)cc(Cl)cc2c2cc(C(F)(F)F)ccc12", "note": "(stereo not shown) [Halofantrine lot −5, halofantrine]", "HIT (2 Std, 1 uM)": "HIT"}, {"compound": "CC1(N)CCN(c2cccnc2NC(=O)c2nc(-c3ncccc3C(F)(F)F)cnc2N)CC1", "note": "[LXS-196, lxs196]", "HIT (2 Std, 1 uM)": "HIT"}]}, {"tested_on": "SARS-CoV-2", "assay": "microbe, parasite or virus in culture", "assay_type": "cell-based", "details": "1 uM, average log2FC infection (n=3) relative to DMSO", "values": [{"compound": "CCCCN(CCCC)CCC(O)c1cc2c(Cl)cc(Cl)cc2c2cc(C(F)(F)F)ccc12", "note": "(stereo not shown) [Halofantrine lot −4, halofantrine]", "Average Infection (1 uM)": "−1.202"}, {"compound": "CCCCN(CCCC)CCC(O)c1cc2c(Cl)cc(Cl)cc2c2cc(C(F)(F)F)ccc12", "note": "(stereo not shown) [Halofantrine lot −5, halofantrine]", "Average Infection (1 uM)": "−1.062"}, {"compound": "CC1(N)CCN(c2cccnc2NC(=O)c2nc(-c3ncccc3C(F)(F)F)cnc2N)CC1", "note": "[LXS-196, lxs196]", "Average Infection (1 uM)": "−2.123"}]}, {"tested_on": "SARS-CoV-2", "assay": "microbe, parasite or virus in culture", "assay_type": "cell-based", "details": "5 uM", "values": [{"compound": "CCCCN(CCCC)CCC(O)c1cc2c(Cl)cc(Cl)cc2c2cc(C(F)(F)F)ccc12", "note": "(stereo not shown) [Halofantrine lot −4, halofantrine]", "HIT (2 Stdv, 5 uM)": "HIT"}, {"compound": "CCCCN(CCCC)CCC(O)c1cc2c(Cl)cc(Cl)cc2c2cc(C(F)(F)F)ccc12", "note": "(stereo not shown) [Halofantrine lot −5, halofantrine]", "HIT (2 Stdv, 5 uM)": "HIT"}, {"compound": "CC1(N)CCN(c2cccnc2NC(=O)c2nc(-c3ncccc3C(F)(F)F)cnc2N)CC1", "note": "[LXS-196, lxs196]", "HIT (2 Stdv, 5 uM)": "HIT"}]}, {"tested_on": "SARS-CoV-2", "assay": "microbe, parasite or virus in culture", "assay_type": "cell-based", "details": "5 uM, average log2FC infection (n=3) relative to DMSO", "values": [{"compound": "CCCCN(CCCC)CCC(O)c1cc2c(Cl)cc(Cl)cc2c2cc(C(F)(F)F)ccc12", "note": "(stereo not shown) [Halofantrine lot −4, halofantrine]", "Average Infection (5 uM)": "−1.864"}, {"compound": "CCCCN(CCCC)CCC(O)c1cc2c(Cl)cc(Cl)cc2c2cc(C(F)(F)F)ccc12", "note": "(stereo not shown) [Halofantrine lot −5, halofantrine]", "Average Infection (5 uM)": "−1.947"}, {"compound": "CC1(N)CCN(c2cccnc2NC(=O)c2nc(-c3ncccc3C(F)(F)F)cnc2N)CC1", "note": "[LXS-196, lxs196]", "Average Infection (5 uM)": "−6.497"}]}, {"tested_on": "SARS-CoV-2", "assay": "microbe, parasite or virus in culture", "assay_type": "cell-based", "details": "Severe acute respiratory syndrome coronavirus 2, 1 uM, single replicate, relative to negative control DMSO; read-out: Normalized Infection (1 uM)", "units": {"activity at 1 µM": "%"}, "values": [{"compound": "CCCCN(CCCC)CCC(O)c1cc2c(Cl)cc(Cl)cc2c2cc(C(F)(F)F)ccc12", "note": "(stereo not shown) [Halofantrine lot −4, halofantrine]", "activity at 1 µM": 48.6}, {"compound": "CC1(N)CCN(c2cccnc2NC(=O)c2nc(-c3ncccc3C(F)(F)F)cnc2N)CC1", "note": "[LXS-196, lxs196]", "activity at 1 µM": 31}]}, {"tested_on": "SARS-CoV-2", "assay": "microbe, parasite or virus in culture", "assay_type": "cell-based", "details": "Severe acute respiratory syndrome coronavirus 2, 5 uM, single replicate, relative to negative control DMSO; read-out: Normalized Infection (5 uM)", "units": {"activity at 5 µM": "%"}, "values": [{"compound": "CCCCN(CCCC)CCC(O)c1cc2c(Cl)cc(Cl)cc2c2cc(C(F)(F)F)ccc12", "note": "(stereo not shown) [Halofantrine lot −4, halofantrine]", "activity at 5 µM": 23.4}]}, {"tested_on": "SARS-CoV-2", "assay": "microbe, parasite or virus in culture", "assay_type": "cell-based", "details": "overall, 1 or 5 uM", "values": [{"compound": "CCCCN(CCCC)CCC(O)c1cc2c(Cl)cc(Cl)cc2c2cc(C(F)(F)F)ccc12", "note": "(stereo not shown) [Halofantrine lot −4, halofantrine]", "HIT": "Yes"}, {"compound": "CCCCN(CCCC)CCC(O)c1cc2c(Cl)cc(Cl)cc2c2cc(C(F)(F)F)ccc12", "note": "(stereo not shown) [Halofantrine lot −5, halofantrine]", "HIT": "Yes"}, {"compound": "CC1(N)CCN(c2cccnc2NC(=O)c2nc(-c3ncccc3C(F)(F)F)cnc2N)CC1", "note": "[LXS-196, lxs196]", "HIT": "Yes"}]}, {"tested_on": "not given", "assay": "not given", "details": "1 uM", "values": [{"compound": "CCCCN(CCCC)CCC(O)c1cc2c(Cl)cc(Cl)cc2c2cc(C(F)(F)F)ccc12", "note": "(stereo not shown) [Halofantrine lot −4, halofantrine]", "Toxic (1 uM)": "0 (non-toxic (Normalized Cell number>0.65)"}, {"compound": "CCCCN(CCCC)CCC(O)c1cc2c(Cl)cc(Cl)cc2c2cc(C(F)(F)F)ccc12", "note": "(stereo not shown) [Halofantrine lot −5, halofantrine]", "Toxic (1 uM)": "0 (non-toxic (Normalized Cell number>0.65)"}, {"compound": "CC1(N)CCN(c2cccnc2NC(=O)c2nc(-c3ncccc3C(F)(F)F)cnc2N)CC1", "note": "[LXS-196, lxs196]", "Toxic (1 uM)": "0 (non-toxic (Normalized Cell number>0.65)"}]}, {"tested_on": "not given", "assay": "not given", "details": "5 uM", "values": [{"compound": "CCCCN(CCCC)CCC(O)c1cc2c(Cl)cc(Cl)cc2c2cc(C(F)(F)F)ccc12", "note": "(stereo not shown) [Halofantrine lot −4, halofantrine]", "Toxic (5 uM)": "0 (non-toxic (Normalized Cell number>0.65)"}, {"compound": "CCCCN(CCCC)CCC(O)c1cc2c(Cl)cc(Cl)cc2c2cc(C(F)(F)F)ccc12", "note": "(stereo not shown) [Halofantrine lot −5, halofantrine]", "Toxic (5 uM)": "0 (non-toxic (Normalized Cell number>0.65)"}]}, {"tested_on": "not given", "assay": "not given", "details": "compound at 1 uM, average of normalized cell number, n=3, relative to DMSO", "values": [{"compound": "CCCCN(CCCC)CCC(O)c1cc2c(Cl)cc(Cl)cc2c2cc(C(F)(F)F)ccc12", "note": "(stereo not shown) [Halofantrine lot −4, halofantrine]", "Average Cell Number (1 uM)": 0.8035}, {"compound": "CCCCN(CCCC)CCC(O)c1cc2c(Cl)cc(Cl)cc2c2cc(C(F)(F)F)ccc12", "note": "(stereo not shown) [Halofantrine lot −5, halofantrine]", "Average Cell Number (1 uM)": 0.6582}, {"compound": "CC1(N)CCN(c2cccnc2NC(=O)c2nc(-c3ncccc3C(F)(F)F)cnc2N)CC1", "note": "[LXS-196, lxs196]", "Average Cell Number (1 uM)": 0.9125}]}, {"tested_on": "not given", "assay": "not given", "details": "compound at 1 uM, single replicate, raw cell count", "values": [{"compound": "CCCCN(CCCC)CCC(O)c1cc2c(Cl)cc(Cl)cc2c2cc(C(F)(F)F)ccc12", "note": "(stereo not shown) [Halofantrine lot −4, halofantrine]", "Cell Number (1 uM)": "4727 and 4541 and 4857"}, {"compound": "CCCCN(CCCC)CCC(O)c1cc2c(Cl)cc(Cl)cc2c2cc(C(F)(F)F)ccc12", "note": "(stereo not shown) [Halofantrine lot −5, halofantrine]", "Cell Number (1 uM)": "3755 and 3889 and 3927"}, {"compound": "CC1(N)CCN(c2cccnc2NC(=O)c2nc(-c3ncccc3C(F)(F)F)cnc2N)CC1", "note": "[LXS-196, lxs196]", "Cell Number (1 uM)": "5737 and 5507 and 4798"}]}, {"tested_on": "not given", "assay": "not given", "details": "compound at 1 uM, single replicate, relative to negative control DMSO", "values": [{"compound": "CCCCN(CCCC)CCC(O)c1cc2c(Cl)cc(Cl)cc2c2cc(C(F)(F)F)ccc12", "note": "(stereo not shown) [Halofantrine lot −4, halofantrine]", "Normalized Cell Number (1 uM)": "0.8067 and 0.7749 and 0.8288"}, {"compound": "CCCCN(CCCC)CCC(O)c1cc2c(Cl)cc(Cl)cc2c2cc(C(F)(F)F)ccc12", "note": "(stereo not shown) [Halofantrine lot −5, halofantrine]", "Normalized Cell Number (1 uM)": "0.6408 and 0.6637 and 0.6701"}, {"compound": "CC1(N)CCN(c2cccnc2NC(=O)c2nc(-c3ncccc3C(F)(F)F)cnc2N)CC1", "note": "[LXS-196, lxs196]", "Normalized Cell Number (1 uM)": "0.979 and 0.9398 and 0.8188"}]}, {"tested_on": "not given", "assay": "not given", "details": "compound at 5 uM, average of normalized cell number, n=3, relative to DMSO", "values": [{"compound": "CCCCN(CCCC)CCC(O)c1cc2c(Cl)cc(Cl)cc2c2cc(C(F)(F)F)ccc12", "note": "(stereo not shown) [Halofantrine lot −4, halofantrine]", "Average Cell Number (5 uM)": 0.6652}, {"compound": "CCCCN(CCCC)CCC(O)c1cc2c(Cl)cc(Cl)cc2c2cc(C(F)(F)F)ccc12", "note": "(stereo not shown) [Halofantrine lot −5, halofantrine]", "Average Cell Number (5 uM)": 0.8653}, {"compound": "CC1(N)CCN(c2cccnc2NC(=O)c2nc(-c3ncccc3C(F)(F)F)cnc2N)CC1", "note": "[LXS-196, lxs196]", "Average Cell Number (5 uM)": 0.5379}]}, {"tested_on": "not given", "assay": "not given", "details": "compound at 5 uM, single replicate, raw cell count", "values": [{"compound": "CCCCN(CCCC)CCC(O)c1cc2c(Cl)cc(Cl)cc2c2cc(C(F)(F)F)ccc12", "note": "(stereo not shown) [Halofantrine lot −5, halofantrine]", "Cell Number (5 uM)": "5286 and 5054 and 5044"}]}, {"tested_on": "not given", "assay": "not given", "details": "compound at 5 uM, single replicate, relative to negative control DMSO", "values": [{"compound": "CCCCN(CCCC)CCC(O)c1cc2c(Cl)cc(Cl)cc2c2cc(C(F)(F)F)ccc12", "note": "(stereo not shown) [Halofantrine lot −5, halofantrine]", "Normalized Cell Number (5 uM)": "0.892 and 0.8528 and 0.8511"}]}]}
